Here are results for two substances from patent US6939566B2, “Microbicidal formulations and methods to control microorganisms” (priority 1999, dated 2005).

In test [1] the test system is E. coli, Stafelococus, Bascillus, and Salmonella. Description: Bactericidal efficacy of diluted disinfectants on actively growing pathogenic bacteria. Format: cell-based. The settings on record: H2O2 absent; about 51 ppm complex silver. Here is the method:
Again, these prepared solutions were poured into dark bottles.
The above concludes the preparation of these disinfectants. However, to utilize these mixtures as bactericides, 5 ml of each bottled solution was added to 45 ml of double distilled-de-ionized water (10% by volume). […] The upper and lower concentration limits may be different if desired, depending on the nature of the desired application. For the samples where H2O2 is present, the active concentration of the disinfectant should be around 56,000 ppm.
The diluted solutions were then tested on several kinds of actively growing pathogenic bacteria to ascertain their effectiveness. Different strains of pathogenic bacteria were employed for the testing; namely, E. coli, Stafelococus, Bascillus, and Salmonella.

The test system of test [2] is freshly-cut roses. Kind of test: Preservation of cut flowers and plants. The conditions noted are these: examined after 15 days; silver approximately 166 ppb in tap water for the invention's sample. The procedure: A silver concentration of approximately 166 ppb was used. Both inoculated and controlled samples were tested in which freshly-cut roses were placed in the prepared solution and tap water, respectively. Cut roses were chosen because they are very susceptible to slight changes in the surrounding area and are equally susceptible to chemicals. For comparative purposes, other preservative type chemicals were also tested; namely, silver thiosulfate and hypochlorite.
In the case of the two other chemicals used, it was observed that there was discoloration of the petals, loss of leaves and petals, and dehydration.

Consider Silver-Arginine Complex [Example 3], for which, in test [1], the “order of potency among the amino acid complexes” value is given as “most potency”. Consider “Silver-glutamic Acid Complex [Example 1]”, for which the “condition of cut roses” value in test [2] was “no black or brown burns on the petals and there were no wilted flowers, and the stems and leaves were in good condition”.
